The target of the experiment is T1, full length human recombinant glucocorticoid receptor (Homo sapiens, UniProt P04150).
T1 construct: partially purified full length human recombinant glucocorticoid receptor; purchased Panvera/Invitrogen PV4302
T1 sequence (P04150 1-777): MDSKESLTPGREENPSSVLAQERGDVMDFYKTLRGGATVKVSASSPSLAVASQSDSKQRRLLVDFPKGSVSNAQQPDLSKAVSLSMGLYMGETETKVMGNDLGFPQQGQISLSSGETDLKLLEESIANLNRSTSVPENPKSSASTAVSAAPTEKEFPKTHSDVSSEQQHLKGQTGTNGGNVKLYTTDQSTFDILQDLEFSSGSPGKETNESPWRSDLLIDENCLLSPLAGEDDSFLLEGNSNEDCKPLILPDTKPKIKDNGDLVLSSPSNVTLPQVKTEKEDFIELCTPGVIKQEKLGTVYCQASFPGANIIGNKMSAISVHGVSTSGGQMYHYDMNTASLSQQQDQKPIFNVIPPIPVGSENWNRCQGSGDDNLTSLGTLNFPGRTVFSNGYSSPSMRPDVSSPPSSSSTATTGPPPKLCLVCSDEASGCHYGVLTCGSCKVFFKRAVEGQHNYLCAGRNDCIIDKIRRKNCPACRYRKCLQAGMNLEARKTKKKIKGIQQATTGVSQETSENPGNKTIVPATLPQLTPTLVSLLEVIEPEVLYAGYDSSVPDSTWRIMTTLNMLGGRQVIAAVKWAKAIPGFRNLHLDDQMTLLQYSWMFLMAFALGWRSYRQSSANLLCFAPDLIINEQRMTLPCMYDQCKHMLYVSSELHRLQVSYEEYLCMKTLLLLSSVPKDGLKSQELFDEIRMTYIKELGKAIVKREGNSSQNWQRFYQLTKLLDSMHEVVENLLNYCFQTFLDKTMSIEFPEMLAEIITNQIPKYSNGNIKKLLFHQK
In words: Glucocorticoid Receptor Binding Assay (fluorescence polarization competitor assay, Fluormone GS Far Red tracer). As to the method:
Glucocorticoid Receptor Binding Assay
The ability of the substances to bind to the glucocorticoid receptor was determined with the help of a commercial Glucocorticoid Receptor Competitor Assay far red kit provided by Panvera/Invitrogen (PV4302). This kit is used as provided by the supplier. It contains some partially purified full length human recombinant glucocorticoid receptor, a coactivator related GR stabilizing peptide, a tight-binding fluorescent GR ligand Fluormone™ GS Far Red as labeled tracer and a screening buffer. All reagents are prepared and the assay is run according to the recommendations of the kit manufacturer.
Briefly, the GR stabilizing peptide and the human recombinant glucocorticoid receptor are both diluted with the screening buffer (pH 7.4) and are gently mixed (no vortexing) just before the assay and kept on ice until use. The fluorescent-labeled ligand is also diluted with the screening buffer just before the assay and kept on ice until use. The substances to test are pre-diluted in pure DMSO then some water is added to get an intermediate 4.2% DMSO stock solution. Ten microliter of the intermediate stock solution is gently mixed with 5 μl of diluted fluorescent-labeled ligand and 5 μl of diluted human recombinant glucocorticoid receptor in a 384-well plate (low volume, ultraclear, glass plate from Greiner ref 788896). The plate is centrifuged, sealed and incubated for 3 hours at 22° C. in the dark. The polarized fluorescence is measured with a Zeiss-HTS reader or any equivalent equipment (610-660 nm).
All compounds were tested to determine IC50 in a serial dilution experiment. The concentration at which 50% inhibition of the fluorescent GR ligand Fluormone™ GS Far Red is obtained (the IC50) is determined after fitting with a sigmoidal dose-response model of a plot of the logarithm of the concentration versus percent inhibition measured for the different concentrations. Ki's were calculated from IC50 based on Cheng-Prusoff equation (Cheng, Y, Prusoff, W H (1973) Biochem Pharmacol 22, 3099-3108): Ki=IC50/[1+D/Kd] wherein D is the concentration of the fluorescent ligand and Kd is the binding constant for the fluorescent ligand binding to the receptor under the conditions used in the competition experiment.
(In general: In fluorescence polarisation assays a small probe gives low polarisation when free and higher when bound to something large.)

As a reminder, the Ki is a dissociation constant, usually derived from enzyme kinetics or from competition with a known ligand.

Structures are written as SMILES.

Take `CCOC(=O)c1ccc(COc2ccc([C@@H](C)[C@@](O)(c3cnc(C)cn3)C(F)(F)F)c(Cl)c2)cc1` (racemic) [Example 1, 4-{3-Chloro-4-[3,3,3-trifluoro-2-hydroxy-1-methyl-2-(5-methyl-pyrazin-2-yl)-propyl]-phenoxymethyl}-benzoic acid ethyl ester]: the Ki was found to be 76.6 nM.

Regarding `COC(=O)Cc1ccc(COc2ccc([C@@H](C)[C@@](O)(c3cnc(C)cn3)C(F)(F)F)c(Cl)c2)cc1` (racemic) [Example 11, (4-{3-Chloro-4-[3,3,3-trifluoro-2-hydroxy-1-methyl-2-(5-methyl-pyrazin-2-yl)-propyl]-phenoxymethyl}-phenyl)-acetic acid methyl ester], the Ki came out at 84 nM. On to `COC(=O)c1ccc(COc2ccc([C@@H](C)[C@@](O)(c3cnc(C)cn3)C(F)(F)F)c(Cl)c2)c(OC)c1` (racemic) [Example 15, 4-{3-Chloro-4-[3,3,3-trifluoro-2-hydroxy-1-methyl-2-(5-methyl-pyrazin-2-yl)-propyl]-phenoxymethyl}-3-methoxy-benzoic acid methyl ester], for which the Ki was determined as 72.3 nM. Consider `Cc1cc([C@@](O)([C@@H](C)c2ccc(Oc3ccc(C(=O)O)c(F)c3)cc2Cl)C(F)(F)F)cn(C)c1=O` (racemic) [Example 204, 4-{3-Chloro-4-[2-(1,5-dimethyl-6-oxo-1,6-dihydro-pyridin-3-yl)-3,3,3-trifluoro-2-hydroxy-1-methyl-propyl]-phenoxy}-2-fluoro-benzoic acid], for which the Ki is 0.4 nM. In the case of `Cc1cc([C@@](O)([C@@H](C)c2ccc(Oc3ccc(C(=O)O)cc3Cl)cc2Cl)C(F)(F)F)cn(C)c1=O` (racemic) [Example 215, 3-Chloro-4-{3-chloro-4-[2-(1,5-dimethyl-6-oxo-1,6-dihydro-pyridin-3-yl)-3,3,3-trifluoro-2-hydroxy-1-methyl-propyl]-phenoxy}-benzoic acid], the Ki is 0.2 nM.

`Cc1cc([C@@](O)([C@@H](C)c2ccc(Oc3ccc(C(=O)O)cn3)cc2Cl)C(F)(F)F)cn(C)c1=O` (racemic) [Example 218, 6-{3-Chloro-4-[2-(1,5-dimethyl-6-oxo-1,6-dihydro-pyridin-3-yl)-3,3,3-trifluoro-2-hydroxy-1-methyl-propyl]-phenoxy}-nicotinic acid]: the Ki was determined as 1.4 nM. As for `COC(=O)c1ccc(COc2ccc([C@@H](C)[C@@](O)(c3ccnc(Cl)c3)C(F)(F)F)c(Cl)c2)c(OC)c1` (relative stereo) [Example 21, 4-{3-Chloro-4-[2-(2-chloro-pyridin-4-yl)-3,3,3-trifluoro-2-hydroxy-1-methyl-propyl]-phenoxymethyl}-3-methoxy-benzoic acid methyl ester], the Ki is 7.5 nM. With `COC(=O)Cc1ccc(COc2ccc([C@@H](C)[C@@](O)(c3ccnc(Cl)c3)C(F)(F)F)c(Cl)c2)cc1` (relative stereo) [Example 23, (4-{3-Chloro-4-[2-(2-chloro-pyridin-4-yl)-3,3,3-trifluoro-2-hydroxy-1-methyl-propyl]-phenoxymethyl}-phenyl)-acetic acid methyl ester], the Ki was found to be 13.3 nM.

Regarding `COC(=O)c1ccc(N(C)C(=O)c2ccc([C@@H](C)[C@@](O)(c3ccnc(Cl)c3)C(F)(F)F)c(Cl)c2)cc1` (relative stereo) [Example 28, 4-({3-Chloro-4-[-2-(2-chloro-pyridin-4-yl)-3,3,3-trifluoro-2-hydroxy-1-methyl-propyl]-benzoyl}-methyl-amino)-benzoic acid methyl ester], the Ki turned out to be 114 nM. `COC(=O)c1ccc(CNC(=O)c2ccc([C@@H](C)[C@@](O)(c3ccnc(Cl)c3)C(F)(F)F)c(Cl)c2)cc1` (relative stereo) [Example 36, 4-({3-Chloro-4-[2-(2-chloro-pyridin-4-yl)-3,3,3-trifluoro-2-hydroxy-1-methyl-propyl]-benzoylamino}-methyl)-benzoic acid methyl ester]: the Ki is 117 nM. Next, `COC(=O)Cc1ccc(NC(=O)c2ccc([C@@H](C)[C@@](O)(c3ccnc(Cl)c3)C(F)(F)F)c(Cl)c2)cc1` (relative stereo) [Example 38, (4-{3-Chloro-4-[2-(2-chloro-pyridin-4-yl)-3,3,3-trifluoro-2-hydroxy-1-methyl-propyl]-benzoylamino}-phenyl)-acetic acid methyl ester]: 155 nM. As to `COC(=O)c1cccc(NC(=O)c2ccc([C@@H](C)[C@@](O)(c3ccnc(Cl)c3)C(F)(F)F)c(Cl)c2)c1` (relative stereo) [Example 40, 3-{3-Chloro-4-[2-(2-chloro-pyridin-4-yl)-3,3,3-trifluoro-2-hydroxy-1-methyl-propyl]-benzoylamino}-benzoic acid methyl ester], the Ki amounted to 121 nM. Next, `C[C@H](c1ccc(C(=O)Nc2cccc(C(=O)O)n2)cc1Cl)[C@@](O)(c1ccnc(Cl)c1)C(F)(F)F` (relative stereo) [Example 44, 6-{3-Chloro-4-[2-(2-chloro-pyridin-4-yl)-3,3,3-trifluoro-2-hydroxy-1-methyl-propyl]-benzoylamino}-pyridine-2-carboxylic acid]: 228 nM; `CCOC(=O)c1noc(-c2ccc([C@@H](C)[C@@](O)(c3ccnc(Cl)c3)C(F)(F)F)c(Cl)c2)n1` (relative stereo) [Example 47, 5-{3-Chloro-4-[2-(2-chloro-pyridin-4-yl)-3,3,3-trifluoro-2-hydroxy-1-methyl-propyl]-phenyl}-[1,2,4]oxadiazole-3-carboxylic acid ethyl ester]: 47.1 nM; `C[C@H](c1ccc(-c2ccc(C(=O)O)cc2)cc1Cl)[C@@](O)(c1ccnc(Cl)c1)C(F)(F)F` (relative stereo) [Example 50, 3′-Chloro-4′-[2-(2-chloro-pyridin-4-yl)-3,3,3-trifluoro-2-hydroxy-1-methyl-propyl]-biphenyl-4-carboxylic acid]: 48.5 nM. For `COC(=O)c1ccc(-c2ccc([C@@H](C)[C@@](O)(c3ccnc(Cl)c3)C(F)(F)F)c(Cl)c2)cc1F` (relative stereo) [Example 53, 3′-Chloro-4′-[2-(2-chloro-pyridin-4-yl)-3,3,3-trifluoro-2-hydroxy-1-methyl-propyl]-3-fluoro-biphenyl-4-carboxylic acid methyl ester], the Ki was found to be 14.9 nM. As for `C[C@H](c1ccc(COc2ccc(C(=O)O)cn2)cc1Cl)[C@@](O)(c1ccnc(Cl)c1)C(F)(F)F` (relative stereo) [Example 127, 6-{3-Chloro-4-[2-(2-chloro-pyridin-4-yl)-3,3,3-trifluoro-2-hydroxy-1-methyl-propyl]-benzyloxy}-nicotinic acid], the Ki came to 5.5 nM. On to `C[C@H](c1cc(Oc2ccc(C(=O)O)cn2)ccc1Cl)[C@@](O)(c1ccnc(Cl)c1)C(F)(F)F` (relative stereo) [Example 133, 6-{4-Chloro-3-[2-(2-chloro-pyridin-4-yl)-3,3,3-trifluoro-2-hydroxy-1-methyl-propyl]-phenoxy}-nicotinic acid], for which the Ki was found to be 207 nM.

As to `C[C@H](c1cc(Oc2ncc(C(=O)O)cn2)ccc1Cl)[C@@](O)(c1ccnc(Cl)c1)C(F)(F)F` (relative stereo) [Example 135, 2-{4-Chloro-3-[2-(2-chloro-pyridin-4-yl)-3,3,3-trifluoro-2-hydroxy-1-methyl-propyl]-phenoxy}-pyrimidine-5-carboxylic acid], the Ki is 253 nM. For `C[C@@H](c1ccc(OCc2ccc(CC(=O)O)cc2)cc1Cl)[C@](O)(c1cnc2ccccc2c1)C(F)(F)F` (relative stereo) [Example 145, {4-[3-Chloro-4-(3,3,3-trifluoro-2-hydroxy-1-methyl-2-quinolin-3-yl-propyl)-phenoxymethyl]-phenyl}-acetic acid], the Ki came to 1.9 nM.

These data come from patent US8138189B2, “Substituted benzene compounds as modulators of the glucocorticoid receptor” (Hoffman-La Roche Inc., priority 2009, dated 2012).
